# Assays:
# [1] = biological target: T1, human TLR7 (Homo sapiens, UniProt Q9NYK1); assay: TLR7 Stimulation Determined Using HEK-Blue Detection; assay type: cell-based; settings: HEK-Blue hTLR7 cells, 16 hr, percentages of maximum activation with Resiquimod, Table 1, B233-B247
# T1 construct: host or cells: HEK293 (HEK-Blue hTLR7)
# T1 sequence (Q9NYK1 27-1049): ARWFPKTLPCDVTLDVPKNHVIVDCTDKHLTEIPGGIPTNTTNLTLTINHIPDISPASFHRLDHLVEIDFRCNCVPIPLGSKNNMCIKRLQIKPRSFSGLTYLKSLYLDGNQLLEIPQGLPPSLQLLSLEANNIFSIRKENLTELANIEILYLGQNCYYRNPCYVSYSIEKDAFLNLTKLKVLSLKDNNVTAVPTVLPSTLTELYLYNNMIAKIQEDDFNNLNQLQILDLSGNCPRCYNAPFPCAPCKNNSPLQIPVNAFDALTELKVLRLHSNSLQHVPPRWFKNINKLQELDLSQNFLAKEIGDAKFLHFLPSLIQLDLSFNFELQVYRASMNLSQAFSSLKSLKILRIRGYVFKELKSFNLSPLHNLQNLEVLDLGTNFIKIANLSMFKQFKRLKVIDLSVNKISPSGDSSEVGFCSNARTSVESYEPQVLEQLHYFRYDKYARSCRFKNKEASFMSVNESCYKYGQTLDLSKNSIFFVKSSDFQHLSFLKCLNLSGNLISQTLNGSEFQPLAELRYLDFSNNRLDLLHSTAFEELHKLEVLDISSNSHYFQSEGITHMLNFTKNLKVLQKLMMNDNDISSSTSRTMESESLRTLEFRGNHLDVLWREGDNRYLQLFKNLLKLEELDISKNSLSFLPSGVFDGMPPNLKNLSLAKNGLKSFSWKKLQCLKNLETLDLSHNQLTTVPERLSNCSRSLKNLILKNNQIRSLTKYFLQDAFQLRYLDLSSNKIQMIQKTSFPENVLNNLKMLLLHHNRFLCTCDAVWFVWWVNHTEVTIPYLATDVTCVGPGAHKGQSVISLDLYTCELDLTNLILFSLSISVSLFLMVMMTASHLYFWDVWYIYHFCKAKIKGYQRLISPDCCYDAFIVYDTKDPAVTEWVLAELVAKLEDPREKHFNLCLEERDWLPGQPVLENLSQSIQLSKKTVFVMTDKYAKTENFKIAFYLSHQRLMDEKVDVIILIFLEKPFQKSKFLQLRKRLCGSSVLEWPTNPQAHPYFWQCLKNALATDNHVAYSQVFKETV
# Text: TLR7 Stimulation Determined Using HEK-Blue Detection
# (§1) This assay was designed for studying the stimulation of human TLR7 protein in HEK-Blue hTLR7 tool cell line by monitoring the activation of NF-κB. HEK-Blue hTLR7 cells were obtained by co-transfection of the hTLR7 gene and an optimized secreted embryonic alkaline phosphatase (SEAP) reporter gene into HEK293 cells. The SEAP reporter gene was placed under the control of the IFN-β minimal promoter fused to five NF-κB and AP-1-binding sites. Stimulation with a TLR7 ligand activates NF-κB and AP-1 which induce the expression of SEAP. Levels of SEAP can be easily determined with HEK-Blue Detection, a cell culture medium that allows for real-time detection of SEAP. HEK-Blue Detection contains all the nutrients necessary for cell growth and a specific SEAP color substrate. The hydrolysis of the substrate by SEAP produces a purple/blue color that can be measured with a spectrophotometer.
# (§2) When growing to 50-80% confluency, HEK-Blue hTLR7 cells were plated into 96-well plate (costar 3599) at a density of 40000 cells/well. Then compounds were added with serial dilutions over 10 points with a 0.04 nM-10 μM final concentration range in 0.1% DMSO/HEK-Blue Detection. The plates were then incubated for 16 hr at 37° C. in 5% CO2 and vortex for 30 s before measurement. The optical density at 620-655 nm was read on BMG PHERAstar FSX instrument. The EC50 for each compound was determined by calculating the percentages of the maximum activation identified with Resiquimod.
# [2] = biological target: T2, human TLR 8 protein (Homo sapiens, UniProt Q9NR97); assay: TLR8 Stimulation determined using HEK-Blue Detection; assay type: cell-based; settings: HEK-Blue hTLR8 cells, 16 hr, percentages of maximum activation with Resiquimod or Motolimod, Table 3
# T2 construct: expressed in transfected cells; host or cells: HEK293 (HEK-Blue hTLR8)
# T2 sequence (Q9NR97 27-1041): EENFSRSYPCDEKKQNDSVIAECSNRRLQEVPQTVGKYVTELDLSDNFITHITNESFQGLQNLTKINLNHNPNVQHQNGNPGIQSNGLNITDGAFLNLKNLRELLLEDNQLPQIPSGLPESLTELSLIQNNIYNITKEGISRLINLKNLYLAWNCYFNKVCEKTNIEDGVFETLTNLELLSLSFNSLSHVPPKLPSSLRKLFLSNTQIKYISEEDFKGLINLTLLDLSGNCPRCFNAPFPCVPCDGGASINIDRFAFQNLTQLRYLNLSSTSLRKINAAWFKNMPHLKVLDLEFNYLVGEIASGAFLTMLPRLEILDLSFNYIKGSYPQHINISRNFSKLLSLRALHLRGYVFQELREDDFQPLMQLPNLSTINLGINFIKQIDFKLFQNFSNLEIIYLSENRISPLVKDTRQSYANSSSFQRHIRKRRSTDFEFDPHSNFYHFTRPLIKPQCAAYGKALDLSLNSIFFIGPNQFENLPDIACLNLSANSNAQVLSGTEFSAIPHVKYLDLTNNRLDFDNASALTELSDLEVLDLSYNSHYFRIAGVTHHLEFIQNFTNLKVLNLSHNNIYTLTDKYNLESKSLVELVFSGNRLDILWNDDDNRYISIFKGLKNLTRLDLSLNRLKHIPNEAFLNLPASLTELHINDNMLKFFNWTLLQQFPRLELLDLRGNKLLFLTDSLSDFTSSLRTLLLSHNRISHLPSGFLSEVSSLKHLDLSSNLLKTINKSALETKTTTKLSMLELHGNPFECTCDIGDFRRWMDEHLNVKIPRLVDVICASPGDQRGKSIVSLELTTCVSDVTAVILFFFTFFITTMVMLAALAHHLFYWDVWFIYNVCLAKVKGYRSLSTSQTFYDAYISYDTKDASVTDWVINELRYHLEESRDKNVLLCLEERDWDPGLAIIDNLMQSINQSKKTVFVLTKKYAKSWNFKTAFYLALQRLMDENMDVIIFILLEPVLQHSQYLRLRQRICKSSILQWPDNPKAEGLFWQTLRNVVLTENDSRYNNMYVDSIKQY
# Text: TLR8 Stimulation determined using HEK-Blue Detection
# as §1, with “TLR 8” for “TLR7”, “hTLR8” for “hTLR7”
# as §2, with “hTLR7/8” for “hTLR7”, “1” for “0.04”, “uM” for “μM”, “CO2.” for “CO2 and vortex for 30 s before measurement.”, “Resiquimod or Motolimod.” for “Resiquimod.”
EC50 [1] [nM],EC50 [2] [µM],Structure (SMILES)
12,> 10,"CCC[C@H](C)Nc1nc(N)c2ncc(Cc3cnc(N4CCN(C(=O)CN(C)CCNC)CC4)c(C)c3)n2n1 [Compound B244, (S)-1-(4-(5-((4-amino-2-(pentan-2-ylamino)imidazo[2,1-f][1,2,4]triazin-7-yl)methyl)-3-methylpyridin-2-yl)piperazin-1-yl)-2-(methyl(2-(methylamino)ethyl)amino)ethan-1-one]"
2.5,0.485,"CCC[C@H](C)Nc1nc(N)c2ncc(Cc3cnc(N4CCC(CN(C)CCNC)CC4)c(C)c3)n2n1 [Compound B245, (S)-7-((5-methyl-6-(4-((methyl(2-(methylamino)ethyl)amino)methyl)piperidin-1-yl)pyridin-3-yl)methyl)-N2-(pentan-2-yl)imidazo[2,1-f][1,2,4]triazine-2,4-diamine]"
10.9,> 10,"CCC[C@H](C)Nc1nc(N)c2ncc(Cc3cnc(N4CCN(C(=O)CN)CC4)c(C)c3)n2n1 [Compound B246, (S)-2-amino-1-(4-(5-((4-amino-2-(pentan-2-ylamino)imidazo[2,1-f][1,2,4]triazin-7-yl)methyl)-3-methylpyridin-2-yl)piperazin-1-yl)ethan-1-one]"
0.6,> 10,"CCC[C@H](C)Nc1nc(N)c2ncc(Cc3cnc(N4CCN(CCO)CC4)c(C)c3)n2n1 [Compound B247, (S)-2-(4-(5-((4-amino-2-(pentan-2-ylamino)imidazo[2,1-f][1,2,4]triazin-7-yl)methyl)-3-methylpyridin-2-yl)piperazin-1-yl)ethan-1-ol]"

# — patent US12612407B2, “Imidazo[2,1-f][1,2,4]triazin-4-amine derivatives as TLR7 agonist” (BEIGENE, LTD., priority 2020, dated 2026)
